# According to patent US20030037354A1, “Animal model with disrupted Fgf14 gene” (priority 2001, published 2003):
# Where two headings read alike, the source gives them in different places.
# Key:
# [1] = tested on: wildtype and FGF14 deficient mice; assay: PTZ-induced seizure: latency to onset and time to death; format: in vivo, mouse; conditions: for time to death (mean duration): FGF14 (−/−) mice
# Protocol: Time to onset of tonic-clonic seizure was recorded. In the first experiment (FIG. 9), the mean age was 82 days and the sex ratio was 50% male/female. In the second experiment, the mean age was 354 days and all animals were female.
# [2] = tested on: wildtype and Fgf14^N-βGal/N-βGal mice; assay: Locomotor activity response to stimulant drugs and dopamine receptor agonists; format: in vivo, mouse
# Protocol: Locomotor activity. For the locomotor activity experiments, all mice were acclimated to the activity cages (28 cm long×17 cm wide×12.5 cm high) for one hour on two consecutive days. […] Mice were tested every other day and the order of drug treatment was counterbalanced across days within genotype groups. Locomotor activity was recorded every five minutes by two beams of red light placed at 10 and 19 cm along the length of the activity cage.
# Statistical Analyses. The behavioral data were analyzed using analysis of variance (ANOVA) models typically containing one between-subjects variable (Genotype) and one within-subjects variable (e.g., Trials or Test Sessions). Subsequent one-way ANOVAs were used to evaluate main effects. Data from the experiments concerning drug effects on locomotor activity were analyzed by using a […] analysis of variance (ANOVA) with one between-subjects variable (Drug) being added to the above model. […] Alpha was set at p<0.05 for all analyses.
# extracellular dopamine = conditions: cited from earlier work
# [3] = tested on: Dopamine D1 receptor deficient mice; conditions: cited from earlier work
# [4] = tested on: wildtype and Fgf14^N-βGal/N-βGal mice; assay: Cocaine-induced seizure activity with EEG recording; format: in vivo, mouse
# Protocol: Surgical implantation of skull screw electrodes was performed with the mice positioned in a stereotaxic frame under halothane anesthesia. Using sterile technique, the scalp was incised at the midline and the periosteum was scraped free from the skull. Three burr holes were made with a high speed drill for placement of epidural screw electrodes. Two active electrodes were placed over the right and left frontal cortex approximately 1 mm posterior to the bregma. A reference electrode was implanted in the region over the frontal sinus. The electrodes and lead wires were stabilized to the skull with dental cement. The mice were allowed a three-day recovery period before recording. Reference EEG recordings from the right and left frontal regions were performed using a Grass P5 Series AC amplifier with high and low frequency filter settings at 100 and 1 Hz, respectively. The outputs of the amplifiers were digitized and stored using an analog-to-digital converter and Axoscope software.
# [5] = Fgf14^N-βGal/N-βGal mice, 40 mg/kg
smiles,measurement,setting,value
"C1CCc2nnnn2CC1 [PTZ, pentylenetetrazol]",time to death (mean duration),"[1]; Experiment 1, 100 mg/kg IP, average age 82 days",about 4200 seconds
same,time to death (mean duration),"[1]; Experiment 2, 75 mg/kg IP, average age 354 days",~5700 s
same,time to death after seizure onset,[1]; wild type mice,15 to 20 s
Oc1cc2c(cc1O)C(c1ccccc1)CNCC2 (stereo not shown) [SKF38393],reduction in the locomotor activity induced by the D1R agonist,[2]; Fgf14^N-βGal/N-βGal mice compared to wildtype,30%
CC(N)Cc1ccccc1 (stereo not shown) [amphetamine],elevation of DA efflux above baseline,extracellular dopamine; 2 mg/kg,350%
same,elevation of DA efflux above baseline,extracellular dopamine; 4 mg/kg,750%
same,locomotor response,[3]; 2 mg/kg,non-responsive
same,locomotor response,[3]; 5 mg/kg,decreased response
same,hyperactivity response relative to wildtype littermates,"[2]; Fgf14^N-βGal/N-βGal mice, 2 and 4 mg/kg subcutaneous",significantly lower
COC(=O)[C@H]1[C@@H](OC(=O)c2ccccc2)C[C@@H]2CC[C@H]1N2C [cocaine],EEG recording,[4]; [5],epileptiform activity
same,induction of seizures (behaviour),[4]; [5],brief tonic movements
same,induction of seizures,"[4]; both wildtype and FGF14 deficient mice, 80 mg/kg",tonic-clonic seizures
same,induction of seizures,"[4]; wildtype mice, 40 mg/kg",did not induce seizures
